Test systems include SR leukemia; OVCAR-4 ovarian; SK-MEL-5 melanoma; ACHN renal; TK-10 renal; K-562 leukemia; MOLT-4 leukemia; A549 NSCLC; NCI-H522 lung; HS 578T breast; BT-549 breast; HCT-15 colon; CCRF-CEM leukemia; HOP-92 NSCLC; MCF7 breast; PC-3 prostate; A498 renal; SN12C renal; U251 CNS.
Common to all, as to experiment: growth of human tumour cells (NCI), 48 h

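48-hour exposure; five concentrations; linearly interpolated endpoints. TGI marks complete inhibition of growth.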

Take `O=S(=O)(c1ccccc1)[C@@H]1[C@H]2C=C[C@](CS)(O2)[C@H]1S(=O)(=O)c1ccccc1`: the TGI in the test with SR leukemia was above 100 µM; with OVCAR-4 ovarian, above 100 µM; with SK-MEL-5 melanoma, above 100 µM; with ACHN renal it was above 100 µM; in the test with TK-10 renal, above 100 µM; in the test on K-562 leukemia, 36.9 µM. Also, the TGI was 43.6 µM in the test with MOLT-4 leukemia; above 100 µM in the test with A549 NSCLC; 31.7 µM in the test with NCI-H522 lung; above 100 µM in the test with HS 578T breast; above 100 µM in the test with BT-549 breast; 28.4 µM with HCT-15 colon. The TGI with CCRF-CEM leukemia was 8.33 µM; in the test with HOP-92 NSCLC it was above 100 µM; in the test with MCF7 breast, above 100 µM; with PC-3 prostate, above 100 µM; in the test with A498 renal, above 100 µM; in the test on SN12C renal it was above 100 µM. This molecule also came in with a TGI in the test on U251 CNS above 100 µM.

Regarding `Cc1ccc(C)c(NC(=O)/C(=N\N)C(c2cnc3ccc([N+](=O)[O-])cc3n2)[N+](=O)[O-])c1` (stereo not drawn), the TGI in the test on SR leukemia is above 100 µM; in the test with OVCAR-4 ovarian, 62.9 µM; in the test on SK-MEL-5 melanoma it was above 100 µM; in the test on ACHN renal, 40.1 µM; in the test on TK-10 renal, above 100 µM; with K-562 leukemia, above 100 µM. The TGI with MOLT-4 leukemia, in the test on A549 NSCLC, in the test on NCI-H522 lung, in the test with HS 578T breast, with BT-549 breast and in the test with HCT-15 colon was above 100 µM in each case. The TGI is 25.9 µM in the test with CCRF-CEM leukemia; above 100 µM with HOP-92 NSCLC; above 100 µM in the test on MCF7 breast; above 100 µM with PC-3 prostate; above 100 µM with A498 renal; above 100 µM in the test on SN12C renal. Moreover, in the test on U251 CNS, the TGI is above 100 µM.

Turning to `CC(C)CNC(=O)c1c(NC(=O)c2ccccc2)sc2[nH]c(=O)n(-c3ccccc3)c(=O)c12`, the TGI in the test on SR leukemia was above 90.7 µM; in the test with OVCAR-4 ovarian it was above 100 µM; with SK-MEL-5 melanoma, above 100 µM; in the test on ACHN renal, 61 µM; with TK-10 renal it was 75 µM; in the test with K-562 leukemia it was above 86.9 µM. The TGI in the test with MOLT-4 leukemia was above 100 µM; with A549 NSCLC, above 100 µM; in the test on NCI-H522 lung it was above 100 µM; in the test on HS 578T breast, above 79.1 µM; in the test with BT-549 breast it was 77.4 µM; in the test on HCT-15 colon, above 100 µM. Further, the TGI was above 89.6 µM with CCRF-CEM leukemia; 19.7 µM with HOP-92 NSCLC; above 100 µM with MCF7 breast; above 100 µM in the test on PC-3 prostate; above 71.2 µM with A498 renal; above 100 µM with SN12C renal. The molecule also yielded a TGI in the test with U251 CNS above 100 µM.

In the case of `[O-]/N=N\c1on[n+](CCc2ccccc2)c1Cc1c(/N=N/[O-])on[n+]1CCc1ccccc1`, the TGI was above 100 µM with SR leukemia; 36.7 µM in the test on OVCAR-4 ovarian; 88 µM with SK-MEL-5 melanoma; above 100 µM in the test with ACHN renal; 56.2 µM in the test on TK-10 renal; 65 µM in the test with K-562 leukemia. Further, the TGI was above 100 µM in the test on MOLT-4 leukemia; above 100 µM in the test on A549 NSCLC; 43.8 µM in the test with NCI-H522 lung; 62.2 µM with HS 578T breast; 78.1 µM with BT-549 breast; above 100 µM in the test with HCT-15 colon. Moreover, the TGI was above 100 µM in the test on CCRF-CEM leukemia; 65.8 µM in the test with HOP-92 NSCLC; above 100 µM in the test with MCF7 breast; above 100 µM in the test on PC-3 prostate; above 100 µM in the test on A498 renal; above 100 µM in the test on SN12C renal. In the test on U251 CNS, the TGI came to 52.7 µM.

For the molecule `Cc1cc(O)c2c(c1)C(=O)C=C(Br)C2=O`, the TGI in the test on SR leukemia was 42 µM; in the test with OVCAR-4 ovarian it was 24 µM; with SK-MEL-5 melanoma, 27.4 µM; with ACHN renal, 29.3 µM; in the test with TK-10 renal it was 30.1 µM; with K-562 leukemia, 3.38 µM. Also, the TGI in the test on MOLT-4 leukemia is 4.45 µM; in the test with A549 NSCLC, above 60.5 µM; with NCI-H522 lung, 7.34 µM; with HS 578T breast, 35.6 µM; in the test with BT-549 breast it was 30.6 µM; in the test with HCT-15 colon it was 27.4 µM. For the same molecule, the TGI is 4.1 µM with CCRF-CEM leukemia; 27 µM in the test on HOP-92 NSCLC; 23.4 µM in the test with MCF7 breast; 31.8 µM in the test on PC-3 prostate; 38.2 µM in the test with A498 renal; 31 µM in the test with SN12C renal. For the same molecule, the TGI in the test on U251 CNS is 95.1 µM.

As for `C=CCN1C(=O)/C(=C/c2ccccc2)N=C1SC1OC(COC(C)=O)C(OC(C)=O)C(OC(C)=O)C1OC(C)=O` (stereo not drawn), the TGI was above 100 µM in the test with SR leukemia; above 100 µM in the test with OVCAR-4 ovarian; 64.6 µM in the test on ACHN renal; above 100 µM in the test with TK-10 renal; above 100 µM in the test on K-562 leukemia; above 100 µM in the test on MOLT-4 leukemia. Besides, the TGI in the test with A549 NSCLC is above 100 µM; in the test on NCI-H522 lung, 55.4 µM; in the test with HS 578T breast, 72.2 µM; in the test on BT-549 breast, 65.5 µM; in the test on HCT-15 colon, above 100 µM; in the test on CCRF-CEM leukemia it was above 100 µM. In addition, the TGI was 76.6 µM in the test with HOP-92 NSCLC; above 100 µM in the test on MCF7 breast; 52.9 µM in the test with PC-3 prostate; 99.7 µM in the test on A498 renal; 71.3 µM with SN12C renal; 58.9 µM with U251 CNS.
